Literature values in US20170247647A1, “FLAVOR NANOEMULSIONS AND METHODS OF PREPARING THE SAME” (International Flavors & Fragrances Inc., priority 2014, published 2017).

Assays:
[1] = commercial surfactant

Compound | Water Solubility (g/L, approx.) | HLB [1]
CCCC(=O)OC [methyl butyrate] | ~15 g/L | –
Tween™ 20 | – | 16.7
Tween™ 60 | – | 14.9
Tween™ 80 | – | 15

Now from value to compound:

Water Solubility (g/L, approx.) | HLB [1] | Compound
insoluble | – | CSC [dimethyl sulfide]
~90 g/L | – | CCOC(C)=O [ethyl acetate]
~6 g/L | – | CCCC(=O)OCC [ethyl butyrate]
~14 g/L | – | CCOC(=O)CC [ethyl propionate]
